“And” between values parts separate entries of the source, which are not always exact repeats. Equal entries are not always repeated. Where two headings read alike, the source gives them in different places. Bridge positions count the residues as written; N and C are the ends. Square brackets hold non-standard residues; d marks the D form. Peptide text beside a SMILES is read from it. dOrn = NCCC[C@@H](N)C(=O)O

Assay [1] has as its system guinea pig ileum. To be noted: for overall agonist character: conclusion of Example 7.
For assay [2], the system named is guinea pig ileum. The assay is classed as cell-based. The source says: […]. […] […]
The target of the next assay is κ receptors (Homo sapiens, UniProt P41145). The note with it: cited from earlier work; for Ki: values obtained from (7) or (20), read-out: Receptor Binding Ki κ.
For assay [3], the system named is mice. The note with it: from reference (24); cited from earlier work.
Assay [4] deals with mice. The note with it: it injection.
Assay [5] relates to mice.
The target of assay [6] is T1, μ receptors (Homo sapiens, UniProt P35372). Briefly: Binding to μ opiate receptors by inhibition of [3H]-DAMGO.
Method: (§1) The relative affinity and selectivity for the μ receptor over the δ and κ receptors of the synthesized peptides were tested and compared.
Assay [7] relates to mice. Put plainly: Analgesia in mice after IV injection. It is filed as in vivo.
In assay [8] the target is T2, δ receptors (Homo sapiens, UniProt P41143). Put plainly: Binding to δ opiate receptors by inhibition of 3H-pCl-DPDPE. The note with it: FIG. 1 set of 20 pin-synthesized peptides.
Method: as §1
The target of assay [9] is T2, δ receptors. To be noted: cited from earlier work.
The target of assay [10] is T1, μ receptors. To be noted: values obtained from (7) or (20); read-out: Receptor Binding Ki μ; cited from earlier work.
[11] abbreviates: mean±SEM, read-out: IC50 inhibiting electrically-induced contractions of the guinea pig ileum.
Where [12] appears, read: untreated guinea pig ileum, read-out: agonist activity IC50 in the untreated ileum.
[13] abbreviates: methods of Example 3, route not given.

T1 sequence (P35372 whole entry): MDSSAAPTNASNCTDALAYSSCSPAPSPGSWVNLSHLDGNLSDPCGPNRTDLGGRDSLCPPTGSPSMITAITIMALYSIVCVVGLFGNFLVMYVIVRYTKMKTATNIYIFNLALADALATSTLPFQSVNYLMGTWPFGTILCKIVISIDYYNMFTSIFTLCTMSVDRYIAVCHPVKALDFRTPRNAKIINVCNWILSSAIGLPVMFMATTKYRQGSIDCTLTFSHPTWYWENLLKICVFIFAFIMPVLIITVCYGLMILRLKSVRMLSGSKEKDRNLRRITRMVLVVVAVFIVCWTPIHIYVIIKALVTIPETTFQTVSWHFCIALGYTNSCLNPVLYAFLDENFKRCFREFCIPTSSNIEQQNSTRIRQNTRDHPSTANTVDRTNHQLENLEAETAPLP
Sequence of κ receptors (P41145 whole entry): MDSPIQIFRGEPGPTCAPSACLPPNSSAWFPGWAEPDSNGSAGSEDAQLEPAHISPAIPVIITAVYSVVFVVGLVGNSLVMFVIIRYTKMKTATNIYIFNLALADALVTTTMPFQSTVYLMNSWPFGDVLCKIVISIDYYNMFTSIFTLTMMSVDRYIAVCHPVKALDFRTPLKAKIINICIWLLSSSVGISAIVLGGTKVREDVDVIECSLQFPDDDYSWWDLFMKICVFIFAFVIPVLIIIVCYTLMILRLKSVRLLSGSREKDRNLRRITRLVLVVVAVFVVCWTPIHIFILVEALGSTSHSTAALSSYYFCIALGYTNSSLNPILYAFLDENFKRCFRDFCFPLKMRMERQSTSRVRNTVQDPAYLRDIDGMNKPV
T2 sequence (P41143 whole entry): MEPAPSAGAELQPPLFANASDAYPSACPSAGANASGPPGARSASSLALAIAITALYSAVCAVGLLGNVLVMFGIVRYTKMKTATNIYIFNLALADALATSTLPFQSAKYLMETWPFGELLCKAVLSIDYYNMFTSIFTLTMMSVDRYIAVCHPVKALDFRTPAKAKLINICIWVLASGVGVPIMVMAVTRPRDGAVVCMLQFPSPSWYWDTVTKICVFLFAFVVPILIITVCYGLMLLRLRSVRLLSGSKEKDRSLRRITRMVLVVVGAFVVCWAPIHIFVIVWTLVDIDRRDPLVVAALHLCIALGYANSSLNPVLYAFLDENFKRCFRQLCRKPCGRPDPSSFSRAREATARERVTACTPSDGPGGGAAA

By IC50 is commonly meant the concentration needed to halve the response being measured. Regarding `C[C@@H](NC(=O)[C@@H](N)Cc1ccc(O)cc1)C(=O)NCC(=O)N(C)[C@@H](Cc1ccccc1)C(=O)NCCO` [DAMGO, reference compound], the “inhibition of electrically-induced contractions” value in the assay with guinea pig ileum [1] (0.3 μM DAMGO, ileum treated with 20 nM B-CNA) was 40%. For the same compound, the IC50 in the assay with guinea pig ileum [2] (setting [11]) was determined as 6.8 ± 0.8 nM.

By Ki is commonly meant a measure of affinity in units of concentration, obtained from inhibition or displacement. As for `CSCC[C@H](NC(=O)[C@H](Cc1ccccc1)NC(=O)CNC(=O)CNC(=O)[C@@H](N)Cc1ccc(O)cc1)C(=O)O` [Met-Enkephalin], the Ki at κ receptors was 4440 nM. Moreover, in the assay on mice [3], the ED50 analgesia was 75 µg and the “duration of analgesic effects” value was “less than 10 min”.

In the assay with mice [4], `NC(=O)[C@H](Cc1ccccc1)NC(=O)[C@H](Cc1c[nH]c2ccccc12)NC(=O)[C@@H]1CCCN1C(=O)[C@@H](N)Cc1ccc(O)cc1` [SEQ ID NO:1, H-Tyr-Pro-Trp-Phe-NH2] had an ED50 analgesia of 0.8 µg. The “animals still analgesic 1 hr after injection” value with mice [5] (mice, 10-20 μg of the peptide, 1 hr) is given as “About half”. In the assay with mice [5] (naloxone 1 mg/kg sc, β-funaltrexamine 40 mg/kg 24 h pretreatment), the “effect of antagonists on analgesia induced by 10 μg of the peptide” value is on record as “reversed”. For the same compound, the IC50 in the assay with guinea pig ileum [2] (setting [11]) came to 3.6 ± 0.3 nM. Further, the “effect of antagonists on the peptide's effect in guinea pig ileum” value with guinea pig ileum [2] (naloxone 0.5 μM and CTOP 0.5 μM, applied 1 min before or after, not by nor-binaltorphimine 20 nM) is “blocked and reversed”.

For `NC(=O)[C@H](Cc1ccccc1)NC(=O)[C@H](Cc1ccccc1)NC(=O)[C@@H]1CCCN1C(=O)[C@@H](N)Cc1ccc(O)cc1` [SEQ ID NO:2, H-Tyr-Pro-Phe-Phe-NH2], in the assay with mice [5] (mice, icv injection), the ED50 analgesia is 8.4 µg. Besides, the concentration for half-maximal inhibition (IC50) in the assay with guinea pig ileum [2] (setting [11]) amounted to 4 ± 0.4 nM.

Turning to `N[C@@H](Cc1ccc(O)cc1)C(=O)N1CCC[C@H]1C(=O)N[C@@H](Cc1c[nH]c2ccccc12)C(=O)N[C@@H](Cc1ccccc1)C(=O)O` [SEQ ID NO:3, H-Tyr-Pro-Trp-Phe-OH], in the assay with guinea pig ileum [1] (B-CNA treated ileum), the “activity after treatment with 20 nM beta-chlornaltrexamine” value is reported as “antagonist activity”. Besides, the overall agonist character entry in the assay with guinea pig ileum [1] is recorded as “partial agonist activity”. Also, the “inhibition of contractions by DAMGO after pretreatment with the peptide” value with guinea pig ileum [1] (peptide 20 μM 1 minute before 0.3 μM DAMGO, B-CNA treated ileum) came out at 25%. The half-inhibitory concentration (IC50) in the assay with guinea pig ileum [2] (setting [12]) came out at 5000 nM.

Take `N[C@@H](Cc1ccc(O)cc1)C(=O)N1CCC[C@H]1C(=O)N[C@@H](Cc1ccccc1)C(=O)N[C@@H](Cc1ccccc1)C(=O)O` [SEQ ID NO:4, H-Tyr-Pro-Phe-Phe-OH]: the “activity after treatment with 20 nM beta-chlornaltrexamine” value with guinea pig ileum [1] (B-CNA treated ileum) was “antagonist activity”. Also, in the assay on guinea pig ileum [1], the overall agonist character result is recorded as “partial agonist activity”. In addition, in the assay with guinea pig ileum [2] (setting [12]), the IC50 was 20000 nM.

Take `N[C@@H](Cc1ccc(O)cc1)C(=O)N[C@@H]1CCCCNC(=O)[C@H](Cc2ccccc2)NC(=O)[C@H](Cc2c[nH]c3ccccc23)NC1=O` [SEQ ID NO:13, H-Tyr-c-[D-Lys-Trp-Phe]] (H-Y[dK]WF; lactam 2-C): the “μ receptor affinity higher than the peptide of SEQ ID NO:1” value at μ receptors [6] is given as “about 15 fold”. Moreover, in the assay with mice [5] (setting [13]), the “analgesic potency IC50” value worked out at 0.3 µg and the “analgesic potency greater than SEQ ID NO:1” value was “about 10 fold”. The compound further returned an ED50 analgesia in the assay on mice [7] of 0.16 µmol/kg. Also, in the assay with guinea pig ileum [2], the “IC50 in the guinea pig ileum assay (in words)” value was “subnanomolar” and the “potency in the guinea pig ileum assay greater than SEQ ID NO:1” value is listed as “about 4 fold”.

Consider `N[C@@H](Cc1ccc(O)cc1)C(=O)N[C@@H]1CCCNC(=O)[C@H](Cc2ccccc2)NC(=O)[C@H](Cc2c[nH]c3ccccc23)NC1=O` [SEQ ID NO:15, H-Tyr-c-[D-Orn-Trp-Phe]] (H-Y[dOrn]WF; lactam 2-C), for which the “μ receptor affinity higher than the peptide of SEQ ID NO:1” value at μ receptors [6] is given as “about 4 fold”.

As for `NC(=O)CNC(=O)[C@H](Cc1c[nH]c2ccccc12)NC(=O)[C@@H]1CCCN1C(=O)[C@@H](N)Cc1ccc(O)cc1` [Tyr-W-MIF-1, Tyr-Pro-Trp-Gly-NH2] (H-YPWG-NH2), the inhibitory constant (Ki) is 85 nM at μ receptors [6]; 22300 nM at κ receptors; 15500 nM at δ receptors [9] (values obtained from (7) or (20), read-out: Receptor Binding Ki δ); 70.9 nM and 70 nM on μ receptors [10]. Also, the “selectivity for μ over δ receptors (δ Ki/μ Ki)” value on δ receptors [8] is on record as 240 fold. The “selectivity for μ over κ receptors” value at κ receptors (background, reference (7)) is greater than 300 fold. In addition, the “Binding Selectivity κ/μ” value on κ receptors (values obtained from (7)) is on record as 314. Moreover, the “selectivity for μ over δ receptors” value at δ receptors [9] (background, reference (7)) is reported as greater than 200 fold. In addition, on δ receptors [9] (values obtained from (7)), the “Binding Selectivity δ/μ” value is recorded as 219.

A word on the ED50: it is the dose that gives a 50% effect, or the effect in half of the subjects. The compound `CN1CC[C@]23c4c5ccc(O)c4O[C@H]2[C@@H](O)C=C[C@H]3[C@H]1C5` [morphine, reference compound] displayed a median effective dose (ED50) with mice [7] (Mus musculus) of 0.3 µmol/kg.

The values above are taken from patent US6303578A, “Mu-opiate receptor peptides” (Administrators of the Tulane Educational Fund, priority 1999, dated 2001).
